ChEMBL document CHEMBL1149283, “Design, synthesis and evaluation of a PLG tripeptidomimetic based on a pyridine scaffold” (J Med Chem, 2004)
Where a SMILES comes first, the peptide text is derived from it.

How the values were obtained:
Format in all cases: functional, cell-based
Settings in all cases: NIH3T3
[1] = target: D(2) dopamine receptor (Homo sapiens) (UniProt P14416); assay: Activity at human dopamine D2 receptor in NIH/3T3 cells assessed as enhancement of NPA-stimulated beta-galactosidase activity at 50 nM after 5 days by R-SAT assay
[2] = target: D(2) dopamine receptor (Homo sapiens) (UniProt P14416); assay: Activity at human dopamine D2 receptor in NIH/3T3 cells assessed as enhancement of NPA-stimulated beta-galactosidase activity at 100 nM after 5 days by R-SAT assay
[3] = target: D(2) dopamine receptor (Homo sapiens) (UniProt P14416); assay: Activity at human dopamine D2 receptor in NIH/3T3 cells assessed as enhancement of NPA-stimulated beta-galactosidase activity at 10 nM after 5 days by R-SAT assay

Sequence of D(2) dopamine receptor (Homo sapiens) (P14416 whole entry): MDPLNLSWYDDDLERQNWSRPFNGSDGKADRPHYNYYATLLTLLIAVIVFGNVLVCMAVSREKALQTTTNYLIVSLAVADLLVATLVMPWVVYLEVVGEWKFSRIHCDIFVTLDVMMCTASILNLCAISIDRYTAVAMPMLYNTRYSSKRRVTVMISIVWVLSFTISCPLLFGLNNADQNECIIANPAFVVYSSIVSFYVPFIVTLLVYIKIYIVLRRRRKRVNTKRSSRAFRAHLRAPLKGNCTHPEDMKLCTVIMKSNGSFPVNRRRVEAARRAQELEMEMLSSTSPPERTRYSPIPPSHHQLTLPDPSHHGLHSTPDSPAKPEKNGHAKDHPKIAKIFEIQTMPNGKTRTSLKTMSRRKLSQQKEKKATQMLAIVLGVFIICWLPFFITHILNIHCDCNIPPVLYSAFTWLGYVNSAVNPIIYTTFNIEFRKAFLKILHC

Row | Compound | Activity [1] [%] | Activity [2] [%] | Activity [3] [%]
1 | CC(C)Cc1c(C(=O)[C@@H]2CCCN2)ccnc1OCC(N)=O | 135 | 117 | 146
2 | CC(C)C[C@H](NC(=O)[C@@H]1CCCN1)C(=O)NCC(N)=O (H-Pro-Leu-Gly-NH2) | 104 | 98 | 115
